Test results from patent US8354433B2, “Anti-inflammatory agents as virostatic compounds” (4SC AG, priority 2009, dated 2013).
Like-named read-outs stand apart in the source and are kept apart here.

Experiments:
[1] = system: HIV-191US005; experiment: Anti-HIV efficacy in fresh human PBMCs (RT activity and p24 ELISA); format: cell-based, HIV-1; settings: Human immunodeficiency virus 1, PBMC, 168 h; for EC50: read-out: EC50/nM; for EC90: read-out: EC90/nM
[2] = system: human PBMCs; experiment: MTS cytotoxicity in human PBMCs; settings: seven days
[3] = biological target: dihydroorotate dehydrogenase (DHODH) (Homo sapiens, UniProt Q02127); experiment: DHODH inhibition, in vitro assay; format: biochemical
Sequence of dihydroorotate dehydrogenase (DHODH) (Q02127 whole entry): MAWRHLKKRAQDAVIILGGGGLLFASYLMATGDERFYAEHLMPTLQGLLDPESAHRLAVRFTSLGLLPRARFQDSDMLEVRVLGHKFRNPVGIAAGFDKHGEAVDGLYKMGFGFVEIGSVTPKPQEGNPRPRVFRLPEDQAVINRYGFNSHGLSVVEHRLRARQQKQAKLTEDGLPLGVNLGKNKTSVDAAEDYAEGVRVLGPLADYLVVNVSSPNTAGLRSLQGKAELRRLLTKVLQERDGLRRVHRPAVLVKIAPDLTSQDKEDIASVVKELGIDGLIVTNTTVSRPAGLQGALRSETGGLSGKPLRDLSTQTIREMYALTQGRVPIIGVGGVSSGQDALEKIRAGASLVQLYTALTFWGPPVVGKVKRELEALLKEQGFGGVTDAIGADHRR

[4] = system: Influenza Virus (H7N7); experiment: microbe, parasite or virus in culture; format: cell-based, avian influenza virus (Fowl Plaque Virus; settings: unidentified influenza virus, H7N7, A549, 16 h; for inhibition at 30 µM: read-out: Antiviral Activity % Inhibition
[5] = Table 8, read-out: DHODH IC50/nM

| Compound | EC50 ([1]; Endpoint RT, seven days) [nM] | EC90 ([1]; Endpoint RT, seven days) [nM] | EC50 ([1]; Endpoint p24, seven days) [nM] | EC90 ([1]; Endpoint p24, seven days) [nM] | TC50/nM [2] [nM] | IC50 ([3]; DHODH IC50/nM, Table 1) [nM] | inhibition at 30 µM [4] [%] | IC50 [3, 5] [nM] | EC50 [4] [µM] | IC50 [3] [nM] |
| --- | --- | --- | --- | --- | --- | --- | --- | --- | --- | --- |
| O=C(Nc1ccc(-c2ccccc2)cc1)Nc1ccccc1C(=O)O [Compound 7, 2-(3-biphenyl-4-ylureido)benzoic acid] | 50 | 210 | 60 | 230 | >100000 | < 20 | – | – | – | – |
| COc1cccc(-c2c(F)c(F)c(NC(=O)c3occc3C(=O)O)c(F)c2F)c1 [Compound 8, 2-(2,3,5,6-tetrafluoro-3′-methoxybiphenyl-4-ylcarbamoyl)furan-3-carboxylic acid] | 760 | 2700 | 840 | 2970 | >100000 | < 20 | > 50 | < 20 | – | – |
| CCOc1cccc(-c2cc(F)c(NC(=O)c3cscc3C(=O)O)c(F)c2)c1 [Compound 9, 4-(3′-ethoxy-3,5-difluorobiphenyl-4-ylcarbamoyl)thiophene-3-carboxylic acid] | – | – | – | – | – | – | > 80 | < 20 | – | – |
| COc1cccc(-c2c(F)c(F)c(NC(=O)C3=C(C(=O)O)CCC3)c(F)c2F)c1 [Compound 10, 2-(2,3,5,6-tetrafluoro-3′-methoxybiphenyl-4-ylcarbamoyl)cyclopent-1-enecarboxylic acid] | – | – | – | – | – | – | > 80 | – | – | – |
| COc1ccccc1-c1c(F)c(F)c(NC(=O)C2=C(C(=O)O)CCC2)c(F)c1F [Compound 11, 2-(2,3,5,6-tetrafluoro-2′-methoxybiphenyl-4-ylcarbamoyl)cyclopent-1-enecarboxylic acid] | – | – | – | – | – | – | > 90 | < 20 | ~3 | – |
| O=C(O)C1=C(C(=O)Nc2c(F)cc(-c3cccc(OC(F)(F)F)c3)cc2F)CCC1 [Compound 12, 2-(3,5-difluoro-3′-(trifluoromethoxy)biphenyl-4-ylcarbamoyl)cyclopent-1-enecarboxylic acid] | – | – | – | – | – | – | > 80 | 20 to 200 | – | – |
| O=C(O)C1=C(C(=O)Nc2c(F)c(F)c(-c3cccc(OC(F)(F)F)c3)c(F)c2F)C(O)CC1 (stereo not shown) [Compound 13, 3-hydroxy-2-(2,3,5,6-tetrafluoro-3′-(trifluoromethoxy)biphenyl-4-ylcarbamoyl)cyclopent-1-enecarboxylic acid] | – | – | – | – | – | – | > 50 | < 20 | – | – |
| COc1ccc(-c2ccc(NC(=O)C3=C(C(=O)O)CCC3)cc2Cl)cc1 [Compound 14, 2-(2-chloro-4′-methoxybiphenyl-4-ylcarbamoyl)cyclopent-1-enecarboxylic acid] | 5240 | 12200 | 5180 | 16600 | >100000 | 20 to 200 | > 50 | 20 to 200 | – | – |
| O=C(O)c1cscc1C(=O)Nc1c(F)cc(-c2cccc(OC(F)(F)F)c2)cc1F [Compound 15, 4-(3,5-difluoro-3′-(trifluoromethoxy)biphenyl-4-ylcarbamoyl)thiophene-3-carboxylic acid] | – | – | – | – | – | – | > 80 | < 20 | – | – |
| CN(C)c1ccc(-c2ccc(NC(=O)C3=C(C(=O)O)CCC3)cc2Cl)cc1 [Compound 23, 2-(2-Chloro-4′-dimethylamino-biphenyl-4-ylcarbamoyl)-cyclopent-1-enecarboxylic acid] | 1070 | 3480 | 1000 | 3720 | >100000 | 20 to 200 | – | – | – | – |
| COc1cccc(-c2ccc(NC(=O)c3ccsc3C(=O)O)c(F)c2)c1 [Compound 24, 3-(3-Fluoro-3′-methoxy-biphenyl-4-ylcarbamoyl)-thiophene-2-carboxylic acid] | 3970 | 9070 | 4540 | 12300 | 55800 | – | – | – | – | 20 to 200 |
| O=C(O)C1=C(C(=O)Nc2c(F)c(F)c(-c3cccc(OC(F)(F)F)c3)c(F)c2F)CSC1 [Compound 25, 4-(2,3,5,6-Tetrafluoro-3′-trifluoromethoxy-biphenyl-4-ylcarbamoyl)-2,5-dihydro-thiophene-3-carboxylic acid] | 1560 | 3020 | 1180 | 3160 | >100000 | < 20 | – | – | – | – |
